In assay [1] the test system is Influenza A virus (A/Puerto Rico/8/1934(H1N1)). Kind of assay: Antiviral activity against human influenza virus (A/New Caledonia/20/1999 (H1N1)) infected in MDCK cells. In kind it is functional, organism-based, Influenza A virus (A/New Caledonia/20/1999(H1N1)).
Assay [2] deals with Influenza B virus. The assay can be described thus: Antiviral activity against Influenza virus (B/Shanghai/361/2002) infected in MDCK cells assessed as sialic acid concentration. In kind it is functional, organism-based. As to conditions: B/Shanghai/361/2002, MDCK.
In assay [3] the test system is Influenza A virus (A/Puerto Rico/8/1934(H1N1)). The assay can be described thus: Antiviral activity against human influenza virus (A/New Caledonia/20/1999 (H1N1)) infected in MDCK cells assessed as sialic acid concentration. In kind it is functional, organism-based, Influenza A virus (A/New Caledonia/20/1999(H1N1)).
The subject of assay [4] is Influenza A virus H3N2. The assay can be described thus: Antiviral activity against Influenza virus (A/Panama/2007/99 (H3N2)) infected in MDCK cells assessed as sialic acid concentration. It counts as functional, organism-based, Influenza A virus (A/Panama/2007/1999(H3N2)).
In assay [5] the test system is Influenza B virus. The assay can be described thus: Antiviral activity against Influenza virus (B/Shanghai/361/2002) infected in MDCK cells. It counts as functional, organism-based. The note with it: B/Shanghai/361/2002, MDCK.
For assay [6], the system named is Influenza A virus H3N2. Kind of assay: Antiviral activity against Influenza virus (A/Panama/2007/99 (H3N2)) infected in MDCK cells. In kind it is functional, organism-based, Influenza A virus (A/Panama/2007/1999(H3N2)).

SMILES strings stand for the structures. ≈ marks a conversion by molar mass, not a printed value.

A word on the IC50: it is the point on the concentration scale where inhibition reaches its midpoint. Regarding `CC(=O)N[C@H]1[C@H]([C@H](O)[C@H](O)CO)O[C@](OC[C@H]2O[C@@H](O[C@@H]([C@H](O)[C@H](C=O)NC(C)=O)[C@H](O)CO)[C@H](O)[C@@H](O)[C@H]2O)(C(=O)O)C[C@@H]1O`, the half-maximal inhibitory concentration (IC50) in assay [1] stood at 2000 µg/mL (≈ 2.96 mM); in assay [2] it was 14.8 mM; in assay [3], 3 mM; in assay [4], 4 mM; in assay [5], 10000 µg/mL (≈ 14.8 mM); in assay [6], 3000 µg/mL (≈ 4.45 mM).

The values above are taken from ChEMBL document CHEMBL1155943, “Design of a sialylglycopolymer with a chitosan backbone having efficient inhibitory activity against influenza virus infection” (J Med Chem, 2008).
